Tests used:
[1] = test system: hair cells of embryonic utricles from E15.5 CD1 mice; assay: scRNAseq of cultured embryonic utricles with vitamin A; type: cell-based, mouse; conditions: E15.5 CD1 utricles; 0.1 μM; 4 days in culture
Method: To evaluate the potential for this pathway to modulate type I hair cell fate, we dissected and cultured embryonic utricles from E15.5 CD1 mice in the presence or absence of 0.1 μM vitamin A (retinoic acid precursor). After 4 days in culture the cells were dissociated, and single cells were captured for scRNAseq. Downstream analysis of the scRNAseq data was performed and representative transcripts used to define type I hair cells (Kcna10 and Lpgat1) and type II hair cells (Mgst3 and DIk2) were selected from the data.

[2] = test system: SPP1 (a Type I HC marker) positive cells in cultured utricles; assay: SPP1 induction by vitamin A in cultured embryonic and adult utricles; type: cell-based, mouse; conditions: 0.1 μM
Method: To further explore these differences of the effect of the retinoic acid pathway on embryonic and adult hair cells, we compared the effects of 0.1 μM vitamin A on cultured utricles from embryonic and adult animals.

**Q.** Which results are given for vitamin A?
**A.** expression of transcripts typically associated with type I hair cells (Kcna10, Lpgat1) [1]: increased expression; expression of transcripts typically associated with type II hair cells (Mgst3, Dlk2) [1]: decreased expression; number of SPP1-positive cells, embryonic tissue [2]: dramatically increased

— US20230061456A1, “METHODS AND COMPOSITIONS FOR GENERATING TYPE 1 VESTIBULAR HAIR CELLS” (Decibel Therapeutics, Inc., priority 2020, published 2023)
